Reference: patent publication EP0565593B1, “REDUCING PESTICIDAL INTERACTIONS IN CROPS” (priority 1990, dated 1992)
Where “and” joins values, the source holds several entries; their conditions need not be identical. Equal values may be shown once. Read-outs that look alike come from different tables or passages of the source.

Columns and labels:
[1] = system: Velvetleaf (VELE); assay: whole plant or invertebrate; format: in vivo, Abutilon theophrasti; conditions: for inhibition at 140 g/ha: Abutilon theophrasti, iv, 312 h
[2] = system: wheat (WHEA); assay: Multi-crop greenhouse test, soil-applied (Examples 65, 66; Tables 64, 65); format: in vivo; parameters: inhibition: dose or concentration left out as unconfirmed; conditions: Triticum aestivum; for inhibition at 18 g/ha: Herb. No. 1 0.018 Kg/Ha alone; for inhibition at 70 g/ha: Herb. No. 1 0.07 Kg/Ha alone; for inhibition at 280 g/ha: Herb. No. 1 0.28 Kg/Ha alone
Protocol: Tests according to this invention in various crops indicate widespread application of the invention. In Examples 62-66 below are described tests with a variety of herbicides contacted with COUNTER® 15G in the presence and absence of MON-7400 (Antidote No. 12); MON-13900 (No. 1); MON-4660 (No. 16) and flurazole (No. 16). Those tests were conducted according to Procedures IV or V described above and illustrated further in other foregoing examples. Plants used in all tests were, for crops (as abbreviated in parentheses); cotton (COTT); soybean (SOBE); CORN, grain sorghum (GRSO); wheat (WHEA) and RICE, and the weeds giant foxtail (GIFT) and velvetleaf (VELE). The data in the tables below represent averages of two replications.
In this test the crops and weeds were planted 1.3 cm deep in 13.7 cm X 27.7 cm pans containing Dupo silt loam soil. The test safeners were applied in acetone solution and COUNTER 15G as dry granules to soil cover layers and incorporated by shaking in a bag. Treated cover layers were placed on seeded pans which were transferred to greenhouse benches and subirrigated. Herbicide was applied POE six (6) days after PPI initiation and observations of plant injury made ten (10) days later; results are shown in Table 61. The herbicide used in this example was BEACON (No. 8).
In another test in the several crops and weeds used in this test series, the herbicidal component was MON-12000 (No. 1); the other components were the same. the procedure used in this test was the same as that described in Example 62, modified to use a light overhead irrigation (about 0.32 cm/day) during days 4-7 of the test. Table 64 […]

[3] = system: Giant foxtail (GIFT); assay: Greenhouse test Procedure VI (Examples 59-61; Tables 58-60); format: in vivo; conditions: Antidote + Biocide No. 1 in furrow
Text: (§1) This procedure describes interaction among herbicide, biocide and antidote when the herbicide is incorporated in a soil cover layer and the biocide and the antidote are applied in a soil furrow containing crop seed before emergence of the crop. The soil and seeding depth were described in Procedure IV. A first container was designated as an untreated control, a second container was designated as a herbicide control, a third container was designated as a herbicide + biocide control and a fourth container as a herbicide + biocide + antidote test container. The biocide and antidote were formulated as granules. The biocide was applied to the soil furrows of the third and fourth containers at an application rate of 1.1 mg of active compound per cm of row. The antidote was applied to the soil furrow of the fourth container at an application rate of 0.37 mg of active compound per cm of row. A measured amount of the herbicide dispersed or dissolved in acetone was applied to a measured quantity of soil. The quantity of soil treated with the herbicide was thoroughly mixed to incorporate the herbicide. Samples of this soil were used to cover the seed beds of the second, third and fourth containers. For each test series, the seed bed of the first container was likewise covered by a soil layer not treated with herbicide and without biocide or antidote in the soil furrow.
(§2) The containers were then placed on a bench in a greenhouse. Watering was by subirrigation plus overhead irrigation after the plants emerged. All treatments were run in duplicate. Plant response was observed according to Procedure IV. Variations in this procedure will be noted in the examples.
(§3) The procedure used in this example involved the PPI application of biocide and safener as described in general Procedure VI above. The "primary" herbicide in this test was MON-12000 (Herbi-cide No. 1) in admixture with other herbicides designated as "co-herbicides", which included LASSO® (co-herbicide B); DUAL® (C); acetochlor (A); EPTAM® (D); butylate (E) and PURSUIT® (K).
(§4) The in-furrow treatments with blended COUNTER 15G and antidote mixtures was as described in above examples. MON-12000 and the co-herbicides were formulated in acetone and applied as tank mixtures, incorporated into Dupo silt loam soil with a rotary drum mixer. Subsamples were used to cover seeded and in-furrow treated 10.2 cm pots. Pots were placed on greenhouse benches and subirrigated. Plant responses were observed thirteen days after PPI initiation. Test results (average of two replications) are shown in Table 58, wherein giant foxtail (GIFT) was used in place of shattercane.
(§5) This test was conducted in the same manner used in Example 59. All biocide and antidote components were the same and in these tests XRD-498 (Herbicide No. 21) was the prime herbicide. Co-herbicides are shown in Table 59 together with test data.
(§6) In one other test conducted as described in the preceding examples in this series of tests, the herbicide PURSUIT® was used as the primary herbicide (in the context of this invention) together with the same insecticide and safeners as above and the co-herbicides shown in Table 60, together with test results.

[4] = system: Velvetleaf (VELE); format: in vivo, Abutilon theophrasti
[5] = system: Velvetleaf (VELE); assay: Greenhouse test Procedure VI (Examples 59-61; Tables 58-60); format: in vivo, Abutilon theophrasti; conditions: Antidote + Biocide No. 1 in furrow
Text: as §1, §2, §3, §4, §5, §6

[6] = Herbicide No. 11 0.0044 Kg/Ha PPI
[7] = Herbicide No. 12 0.0044 Kg/Ha PPI
[8] = Herbicide No. 13 0.0011 Kg/Ha PPI
[9] = Herbicide No. 13 0.0022 Kg/Ha PPI
[10] = Herbicide No. 14 0.07 Kg/Ha PPI
[11] = Herbicide No. 16 0.07 Kg/Ha PPI, 13 days
[12] = Herbicide No. 17 0.14 Kg/Ha PPI, 13 days
[13] = Herbicide No. 18 0.04 Kg/Ha PPI, 13 days
[14] = Herbicide No. 20 1.12 Kg/Ha PPI, 13 days
[15] = Herbicide No. 22 0.28 Kg/Ha PPI, 13 days
[16] = Herbicide No. 24 0.14 Kg/Ha PPI, 13 days
[17] = Herbicide No. 25 0.14 Kg/Ha PPI, 13 days
[18] = Herbicide No. 26 2.24 Kg/Ha PPI, 13 days
[19] = Herbicide No. 28 0.04 Kg/Ha PPI, 13 days

COC(=O)c1c(Cl)nn(C)c1S(=O)(=O)NC(=O)Nc1nc(OC)cc(OC)n1 [Herbicide No. 1, N-[(4,6-dimethoxypyrimidin-2-yl)aminocarbonyl]-3-chloro-4-methoxycarbonyl-5-sulfonamide, reference compound]
inhibition at 140 g/ha ([1]; Herb. No. 1 0.14 kg/Ha alone, PPI, 13 days after planting): 95% | inhibition at 140 g/ha ([1]; Table 51, Herbicide No. 1 0.14 Kg/Ha, where applied Biocide No. 8 8.96 kg/Ha and antidote 4.48 Kg/Ha, all PPI, observed 13 days after treatment): 85% | inhibition at 140 g/ha ([1]; Table 52, Herbicide No. 1 0.14 Kg/Ha, where applied Biocide No. 5 8.96 kg/Ha and antidote 4.48 Kg/Ha, all PPI, observed 13 days after treatment): 85% | % Inhibition VELE ([1]; Herbicide No. 1 0.0175 Kg/Ha PPI alone, Table 19): 85% | % Inhibition VELE ([1]; Herbicide No. 1 0.0175 Kg/Ha PPI alone, Table 20): 80% | % Inhibition VELE ([1]; Herbicide No. 1 0.0175 Kg/Ha PPI alone, Table 21): 80% | % Inhibition VELE ([1]; Herbicide No. 1 0.0175 Kg/Ha PPI alone, Table 22): 85% | % Inhibition VELE ([1]; in vivo): 95% and 90% and 80% | inhibition ([2]; Table 64, Herb. No. 1 0.018 Kg/Ha + Biocide No. 1 8.96 Kg/Ha): 0% | inhibition at 18 g/ha ([2]; Table 64): 0% | inhibition ([2]; Table 64, Herb. No. 1 0.07 Kg/Ha + Biocide No. 1 8.96 Kg/Ha): 0% | inhibition at 70 g/ha ([2]; Table 64): 0% | inhibition ([2]; Table 64, Herb. No. 1 0.28 Kg/Ha + Biocide No. 1 8.96 Kg/Ha): 35% | inhibition at 280 g/ha ([2]; Table 64): 0% | inhibition ([2]; Table 65, Herb. No. 1 0.018 Kg/Ha + Biocide No. 1 8.96 Kg/Ha): 0% | inhibition at 18 g/ha ([2]; Table 65): 0% | inhibition ([2]; Table 65, Herb. No. 1 0.07 Kg/Ha + Biocide No. 1 8.96 Kg/Ha): 0% | inhibition at 70 g/ha ([2]; Table 65): 0% | inhibition ([2]; Table 65, Herb. No. 1 0.28 Kg/Ha + Biocide No. 1 8.96 Kg/Ha): 85% | inhibition at 280 g/ha ([2]; Table 65): 0%

N#CCOc1ccc(Cl)c2cccnc12 [compound 33]
% Inhibition GIFT ([3]; Herbicide No. 6 0.14 Kg/Ha PPI): 70% | % Inhibition GIFT [3, 6]: 0% | % Inhibition GIFT [3, 7]: 0% | % Inhibition GIFT [3, 8]: 10% | % Inhibition GIFT [3, 9]: 35% | % Inhibition GIFT [3, 10]: 0% | % Inhibition GIFT [3, 11]: 45% | % Inhibition GIFT [3, 12]: 80% | % Inhibition GIFT [3, 13]: 45% | % Inhibition GIFT [3, 14]: 30% | % Inhibition GIFT [3, 15]: 15% | % Inhibition GIFT [3, 16]: 25% | % Inhibition GIFT [3, 17]: 25% | % Inhibition GIFT [3, 18]: 15% | % Inhibition GIFT [3, 19]: 40% | % Inhibition 5 DAP VELE ([4]; Antidote 4.48 + Biocide No. 1 8.96 Kg/Ha PPI, Herb. No. 8 0.07, 5 DAP, before herbicide application): 50% | % Inhibition 13 DAP VELE ([4]; Antidote 4.48 + Biocide No. 1 8.96 Kg/Ha PPI, Herb. No. 8 0.07 POE, 13 DAP): 95% | % Inhibition VELE ([4]; Antidote 4.48 + Biocide No. 1 8.96 Kg/Ha PPI, Herbicide No. 7 0.28 POE, 13 days after planting): 70% | % Inhibition 5 DAP VELE ([4]; Herb. […], 5 DAP, before herbicide application): 30% | % Inhibition VELE ([4]; Table 14: Herbicide No. 7 (ACCENT) 0.84 Kg/Ha POE + Biocide No. 2 8.96 Kg/Ha PPI + antidote 4.48 Kg/Ha PPI, 13 days after planting, 8 days after herbicide): 75% | % Inhibition VELE ([4]; […], 13 days after planting, 8 days after herbicide): 70% | % Inhibition VELE ([4]; […], observed 10 days after herbicide application): 85% | % Inhibition 5 DAP VELE ([4]; in vivo): 60% | % Inhibition 13 DAP VELE ([4]; in vivo): 90% | % Inhibition VELE ([5]; Herbicide No. 6 0.14 Kg/Ha PPI): 70% | % Inhibition VELE [5, 6]: 65% | % Inhibition VELE [5, 7]: 60% | % Inhibition VELE [5, 8]: 20% | % Inhibition VELE [5, 9]: 50% | % Inhibition VELE [5, 10]: 85% | % Inhibition VELE [5, 11]: 65% | % Inhibition VELE [5, 12]: 75% | % Inhibition VELE [5, 13]: 40% | % Inhibition VELE [5, 14]: 90% | % Inhibition VELE [5, 15]: 90% | % Inhibition VELE [5, 16]: 95% | % Inhibition VELE [5, 17]: 70% | % Inhibition VELE [5, 18]: 50% | % Inhibition VELE [5, 19]: 80%
